Experimental data reported in the supplement of paper PMC10307832.

Assays:
Assay in all cases: relative viability (nuclei count vs DMSO), 5 days (fraction); higher = more cells survive
[1] = compound: CC(C)N(CCCNC(=O)Nc1ccc(C(C)(C)C)cc1)C[C@H]1O[C@@H](n2ccc3c(N)ncnc32)[C@H](O)[C@@H]1O
In short: (§1)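 A plate was accepted only when its control CV was below 25% and the cells had doubled at least once. Viability is defined from nuclear counts as treated wells divided by vehicle wells, with the median taken across plates. That median covers lung cancer cell lines grown in 1536-well plates, dosed by pinning at five √10-spaced library-drug concentrations, and counted in MetaXpress from 4× Hoechst images after 5 days.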

Shikonin = compound: CC(C)=CC[C@@H](O)C1=CC(=O)c2c(O)ccc(O)c2C1=O [Shikonin]
In short: as §1

Shikonin + Decitabine = compound: CC(C)=CC[C@@H](O)C1=CC(=O)c2c(O)ccc(O)c2C1=O [Shikonin] + Nc1ncn([C@H]2C[C@H](O)[C@@H](CO)O2)c(=O)n1 [Decitabine] (partner 2 µM)
In short: (§2)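 Relative viability divides the nuclei count in treated wells by that in vehicle wells. Lung cancer cell lines were seeded in 1536-well plates, dosed by pin tool the next day, and fixed and stained after 5 days in one step with final 0.05% Triton X-100, 1% formaldehyde and 1 ug/ml Hoechst. Dosing was a single drug or a fixed anchor-drug dose plus five library-drug doses (not always all listed) in √10 steps, and values are medians of duplicate plates imaged at 4×.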

Shikonin + Vorinostat = compound: CC(C)=CC[C@@H](O)C1=CC(=O)c2c(O)ccc(O)c2C1=O [Shikonin] + O=C(CCCCCCC(=O)Nc1ccccc1)NO [Vorinostat] (partner 1 µM)
In short: as §2

In the case of UMC-11, the relative viability ([1]; 0.08 µM) is reported as 0.953, the relative viability ([1]; 0.253 µM) is reported as 0.875 and the relative viability ([1]; 0.8 µM) is reported as 0.82. For the same cell line, the relative viability ([1]; 2.53 µM) was 0.999, the relative viability ([1]; 8 µM) was 1.01 and the relative viability (Shikonin; 0.01 µM) was 0.943. It also gave a relative viability (Shikonin; 0.1 µM) of 0.993, a relative viability (Shikonin; 0.3162 µM) of 1.07 and a relative viability (Shikonin; 1 µM) of 1.08. The relative viability (Shikonin + Decitabine; first compound 0.01 µM) was 0.576, the relative viability (Shikonin + Decitabine; first compound 0.1 µM) was 0.614 and the relative viability (Shikonin + Decitabine; first compound 0.3162 µM) was 0.665. It also gave a relative viability (Shikonin + Decitabine; first compound 1 µM) of 0.74, a relative viability (Shikonin + Vorinostat; first compound 0.01 µM) of 0.322 and a relative viability (Shikonin + Vorinostat; first compound 0.1 µM) of 0.34. For the same cell line, the relative viability (Shikonin + Vorinostat; first compound 0.3162 µM) was 0.415 and the relative viability (Shikonin + Vorinostat; first compound 1 µM) was 0.396.
